Source: patent US11931485B2, “Implantable sustained release device and a method of use therefor in the treatment of brain disorders” (priority 2021, dated 2024)
Where two headings read alike, the source gives them in different places.

Key:
[1] = system: patients suffering from severe headaches
[2] = system: trigeminal nerve ganglion function; assay: Intra-arterial lidocaine in the middle meningeal artery territory in patients with refractory trigeminal neuralgia (blink reflex monitoring, clinical outcome); format: in vivo
Text: Trigeminal neuralgia consists of unilateral, brief/paroxysmal, or continuous pain in one or more divisions of the trigeminal nerve. The pain is secondary to hyperactivity or spontaneous impulse generation within the nerves due to extrinsic compression or intrinsic neural dysfunction. In the experiment, the intra-arterial delivery of medication for modulating trigeminal nerve ganglion function in patients with refractory trigeminal neuralgia was examined. […] Clinical outcome assessment included a 10-point numeric rating, 4-point severity grading, and the pain-free time interval pre- and post-treatment.

SMILES: CCN(CC)CC(=O)Nc1c(C)cccc1C [lidocaine]
- self-reported headache intensity (Visual Analog scale) ([1]; first patient, after 5 min of lidocaine injection (40 mg), pre-procedure intensity 10): 5
- self-reported headache intensity (Visual Analog scale) ([1]; second patient, after 5 min of lidocaine injection, pre-procedure intensity 7): 4
- symptoms at follow-up ([2]; all three patients, 1 month later): returned to baseline severity
- facial hyperalgesia ([2]; all three patients, all dermatomes): improvement in facial hyperalgesia
- pain severity (10-point numeric rating, 4-point severity grading) ([2]; second and third patients): improvement in pain severity on all scales
- pain-free interval ([2]; second patient): 5 days
- pain-free interval ([2]; third patient): 3 days
